This is an account of results in paper PMC9249674, “A small-molecule Skp1 inhibitor elicits cell death by p53-dependent mechanism” (iScience, 2022).

Common to all, as to assay type: cell-based
For one experiment, the system named is MKN-7. Kind of experiment: Cell viability assay (Cell-Titer GLO). Conditions: Homo sapiens; MKN-7^c; Gastric cancer; p53 null or mutant cancer cell lines; 48 hrs; read-out: Anti-proliferative EC50. As to the method:
(§1) For cell viability, cells were seeded in 384 opaque-walled plates with clear bottoms at 300–500 cells per well (optimum density for growth) in a total volume of 20 μL of media. The media was according to culture conditions of each individual cell line (mentioned above). After 12 hrs, compounds were added in a total volume of 5 μL of media (two-fold diluted) to each well with final concentrations from 5 nM to 30 μM. The measurements were conducted 48 hrs after seeding of the cells. Then, 25 μL of Cell-Titer GLO reagent (Promega) was added, and luminescence was measured on an EnSpire multimode plate reader (PerkinElmer), according to the manufacturer’s instructions. The estimated in vitro half-maximal inhibitory concentration (EC50) values were calculated using GraphPad Prism® v6.0 (San Diego, CA) software. The cell viability for A549 cells was also performed for 72- and 96-hrs by using the same experimental conditions as described above.

A further experiment deals with A431. The experiment can be described thus: Cell viability assay (Cell-Titer GLO). Conditions: Homo sapiens, A-431; A431^c; Skin carcinoma; p53 null or mutant cancer cell lines; 48 hrs; read-out: Anti-proliferative EC50. The procedure: as §1
A further experiment has as its system MGC-803. The experiment can be described thus: Cell viability assay (Cell-Titer GLO). Conditions: Homo sapiens; MGC-803^c; Gastric cancer; p53 null or mutant cancer cell lines; 48 hrs; read-out: Anti-proliferative EC50. As to the method: as §1
The next experiment relates to Du145. The experiment can be described thus: Cell viability assay (Cell-Titer GLO). The note with it: Homo sapiens, DU-145, Prostate cancer, 48 hrs, read-out: Anti-proliferative EC50. The procedure: as §1
The subject of a further experiment is H1299. The experiment can be described thus: Cell viability assay (Cell-Titer GLO). The note with it: Homo sapiens, NCI-H1299; H1299^b; Lung cancer; p53 null or mutant cancer cell lines; 48 hrs; read-out: Anti-proliferative EC50. As to the method:
as §1

Another experiment deals with LLC. The experiment can be described thus: Cell viability assay (Cell-Titer GLO). The note with it: Lewis lung carcinoma; LLC^a; Lung cancer; 48 hrs; read-out: Anti-proliferative EC50. The procedure:
as §1

A further experiment deals with H460. The experiment can be described thus: Cell viability assay (Cell-Titer GLO). The note with it: Homo sapiens, NCI-H460, Lung cancer, 48 hrs, read-out: Anti-proliferative EC50. The procedure: as §1
For another experiment, the system named is H1650. Kind of experiment: Cell viability assay (Cell-Titer GLO). Conditions: Homo sapiens, NCI-H1650, Lung cancer, 48 hrs, read-out: Anti-proliferative EC50. The procedure:
as §1

The subject of a further experiment is H358 (p53 null) cells. The experiment can be described thus: Flow cytometric analysis of apoptosis (annexin V/PI). The note with it: 10 μM dose. On the technique in general: Flow cytometry measures light scatter and fluorescence of single cells or particles in a stream.

Where only a bound is given, the exact number is not on record here.

For orientation: EC50 means the concentration needed to bring the measured effect to its halfway point. On to `Nc1ccc(-c2nc3ccccc3c3[nH]c4ccccc4c23)cc1` [Z0933M], for which the concentration for a half-maximal effect (EC50) is > 30 µM with MKN-7; > 30 µM in the experiment on A431; > 30 µM in the experiment with MGC-803; 0.25 ± 0.02 µM in the experiment on Du145; 11.5 ± 0.21 µM with H1299; 1.85 ± 0.35 µM in the experiment on LLC. Moreover, the EC50 stood at 2.69 ± 0.07 µM in the experiment with H460 and 2.35 ± 0.45 µM with H1650. Besides, in the experiment with H358 (p53 null) cells, the induction of apoptosis result was “could not induce apoptosis”.
